Converted amounts (≈) assume the structure as drawn. Like-named read-outs stand apart in the source and are kept apart here. Where a SMILES comes first, the peptide text is derived from it. Bridges are numbered along the chain shown (N, C = ends). Roman numbers before positions name the chains, in order. Side-chain parts run from the residue outwards. [ ]: non-standard residue; d: D form. The star is where a group is joined. Myristoyl = CCCCCCCCCCCCCC(=O)*; Decanoyl = CCCCCCCCCC(=O)*; Nle = CCCC[C@H](N)C(=O)O; Octanoyl = CCCCCCCC(=O)*

The subject of one assay is HaCaT cells. The class given is cell-based, human. To be noted: 24 h. The method, then: Cells were trypsinized, and the medium was renewed 2–3 times per week. The cytotoxicity of compounds was assessed by the determination of cell metabolic activity by colorimetric CellTilter 96® Aqueous One Solution Cell Proliferation Assay (Promega, Madison, WI, USA), according to the manufacturer’s instructions. […] Every compound was medium-soluble in 37 °C; thus, the control cells were cultured with the medium. Serial dilutions of the tested compounds were always prepared prior to use. Cells were incubated with drugs for 24 h, and then, 20 μL of the CellTiter 96®AqueousOne Solution Reagent was added to each well containing cells maintained in 100 μL of culture medium.

Assay [1] concerns Staphylococcus aureus ATCC 33591. Here is the method: The Acinetobacter baumannii ATCC BAA-1605, Enterococcus faecium ATCC 700221, Escherichia coli ML-35 ATCC 43827, Klebsiella aerogenes ATCC 13048, Klebsiella pneumoniae ATCC 700603, Pseudomonas aeruginosa ATCC 9027, Staphylococcus aureus ATCC 25923, Staphylococcus aureus ATCC 33591, Candida albicans ATCC 10231, Candida glabrata ATCC 15126, strains were acquired from the American Type Culture Collection (ATCC). All the strains were stored at −80 °C in Roti-Store cryo vials and before the tests were transferred into fresh Mueller–Hinton broth (MHB, Biocorp, Warsaw, […], Steinheim, Germany) for fungi and incubated for 24 h at 37 °C. Then, the cultures were seeded on the Mueller–Hinton agar (BioMaxima, Lublin, Poland) or Sabouraud dextrose agar (SDA, BioMaxima, Lublin, Poland) plates, respectively, and incubated as just mentioned. These agar cultures were used for further microbiological assays. […]
The MICs were determined by the broth microdilution method according to the Clinical and Laboratory Standard Institute guidelines. […] The experiments were conducted on 96-well microtiter polystyrene plates (Kartell, Noviglio, Italy). The growth was assessed visually after incubation, and the MIC was assumed as the lowest peptide concentration at which a noticeable growth of microorganisms was inhibited. All experiments were conducted in triplicate.

Another assay concerns C. albicans ATCC 10231. Here is the method:
(§1) The Acinetobacter baumannii ATCC BAA-1605, Enterococcus faecium ATCC 700221, Escherichia coli ML-35 ATCC 43827, Klebsiella aerogenes ATCC 13048, Klebsiella pneumoniae ATCC 700603, Pseudomonas aeruginosa ATCC 9027, Staphylococcus aureus ATCC 25923, Staphylococcus aureus ATCC 33591, Candida albicans ATCC 10231, Candida glabrata ATCC 15126, strains were acquired from the American Type Culture Collection (ATCC). All the strains were stored at −80 °C in Roti-Store cryo vials and before the tests were transferred into fresh Mueller–Hinton broth (MHB, Biocorp, Warsaw, Poland) for bacteria or RPMI-1640 (Sigma-Aldrich, Steinheim, Germany) for fungi and incubated for 24 h at 37 °C. Then, the cultures were seeded on the Mueller–Hinton agar (BioMaxima, Lublin, Poland) or Sabouraud dextrose agar (SDA, BioMaxima, Lublin, Poland) plates, respectively, and incubated as just mentioned. These agar cultures were used for further microbiological assays. Cell densities for all assays were adjusted spectrophotometrically (Multiskan GO Microplate Spectrophotometer, Thermo Fisher Scientific, Vantaa, Finland) at 600 and 530 nm for bacteria and fungi, respectively.
(§2) The MICs were determined by the broth microdilution method according to the Clinical and Laboratory Standard Institute guidelines. For this purpose, initial inoculums of bacteria (5 × 10^5 CFU/mL) in MHB and yeasts (2 × 10^3 CFU/mL) in RPMI-1640 with 2% D-glucose were exposed to the ranging concentration of lipopeptides (0.5–256 μg/mL) and incubated at 37 °C for 18 h and 24 h, respectively. The experiments were conducted on 96-well microtiter polystyrene plates (Kartell, Noviglio, Italy). The growth was assessed visually after incubation, and the MIC was assumed as the lowest peptide concentration at which a noticeable growth of microorganisms was inhibited. All experiments were conducted in triplicate.

For a further assay, the system named is C. glabrata ATCC 15126. Here is the method: as §1, §2
The test system of assay [2] is Candida albicans ATCC 10231. Type of assay: cell-based.
Assay [3] has as its system Enterococcus faecium ATCC 700221. The class given is cell-based. In short, it runs like this: (§3)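 Biofilms grown 24 h at 37°C from 5.0 × 10^5 CFU/mL inocula in MHB, rinsed with PBS, then exposed to compounds at 1–512 μg/mL for 24 h at 37°C. Viability read by resazurin after 1 h (570/600 nm). MBEC is the lowest concentration giving ≤10 ± 0.5% reduction relative to controls; triplicates.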

Assay [4] has as its system Klebsiella pneumoniae ATCC 700603. The class given is cell-based. In short, it runs like this: as §3
Assay [5] concerns Pseudomonas aeruginosa ATCC 9027. The class given is cell-based. The essentials: as §3

In the assay on HaCaT cells, `CCCCCCCCCC(=O)N[C@@H](CCCNC(=N)N)C(=O)N[C@@H](CCCNC(=N)N)C(=O)N[C@@H](CSSC[C@H](NC(=O)[C@H](CCCNC(=N)N)NC(=O)[C@H](CCCNC(=N)N)NC(=O)CCCCCCCCC)C(N)=O)C(N)=O` [Compound C2] (I: Decanoyl-Arg-Arg-Cys-NH2 / II: Decanoyl-Arg-Arg-Cys-NH2; disulfide I:3-II:3) registered an IC50 of 231.17 ± 24.37 µg/mL (≈ 197 µM). In addition, the “MIC Staphylococcus aureus ATCC 33591” value in assay [1] (ATCC 33591, 24 h) is 1 µg/mL (≈ 0.854 µM). In the assay on C. albicans ATCC 10231 (ATCC 10231, 24 h), the “MIC C. albicans ATCC 10231” value came out at 4 µg/mL (≈ 3.41 µM). Besides, the “MIC C. glabrata ATCC 15126” value in the assay with C. glabrata ATCC 15126 (ATCC 15126, 24 h) is 8 µg/mL (≈ 6.83 µM). For the same compound, in assay [2] (ATCC 10231, 24 h), the “MBEC Candida albicans ATCC 10231” value was 32 µg/mL. The “MBEC Enterococcus faecium ATCC 700221” value in assay [3] (ATCC 700221, 24 h) worked out at 4 µg/mL. In assay [4] (ATCC 700603, 24 h), the “MBEC Klebsiella pneumoniae ATCC 700603” value was 512 µg/mL. Moreover, the “MBEC Pseudomonas aeruginosa ATCC 9027” value in assay [5] (ATCC 9027, 24 h) was found to be 512 µg/mL.
Turning to `CCCCCCCCCC(=O)N[C@@H](CCCNC(=N)N)C(=O)N[C@@H](CCCNC(=N)N)C(=O)NCCCC[C@H](NC(=O)[C@H](CCCNC(=N)N)NC(=O)[C@H](CCCNC(=N)N)NC(=O)CCCCCCCCC)C(N)=O` [Compound B2] (Decanoyl-Arg-Arg-Lys([Arg-Arg-Decanoyl])-NH2), the IC50 in the assay with HaCaT cells came out at 150.03 ± 3.15 µg/mL (≈ 139 µM). In addition, the “MIC Staphylococcus aureus ATCC 33591” value in assay [1] (ATCC 33591, 24 h) was determined as 1 µg/mL (≈ 0.927 µM). For the same compound, in the assay with C. albicans ATCC 10231 (ATCC 10231, 24 h), the “MIC C. albicans ATCC 10231” value was found to be 8 µg/mL (≈ 7.42 µM). Further, the “MIC C. glabrata ATCC 15126” value in the assay on C. glabrata ATCC 15126 (ATCC 15126, 24 h) is 4 µg/mL (≈ 3.71 µM). The “MBEC Candida albicans ATCC 10231” value in assay [2] (ATCC 10231, 24 h) stood at 32 µg/mL. In assay [3] (ATCC 700221, 24 h), the “MBEC Enterococcus faecium ATCC 700221” value is given as 4 µg/mL. The “MBEC Klebsiella pneumoniae ATCC 700603” value in assay [4] (ATCC 700603, 24 h) was found to be 256 µg/mL. Besides, the “MBEC Pseudomonas aeruginosa ATCC 9027” value in assay [5] (ATCC 9027, 24 h) is given as 512 µg/mL.
In the assay with HaCaT cells (HaCaT, MTS), `CCCCCCCC(=O)N[C@@H](Cc1ccccc1)C(=O)N[C@@H](CCCNC(=N)N)C(=O)N[C@@H](CCCNC(=N)N)C(=O)N[C@@H](CSSC[C@H](NC(=O)[C@H](CCCNC(=N)N)NC(=O)[C@H](CCCNC(=N)N)NC(=O)[C@H](Cc1ccccc1)NC(=O)CCCCCCC)C(N)=O)C(N)=O` [Compound C5] (I: Octanoyl-FRRC-NH2 / II: Octanoyl-FRRC-NH2; disulfide I:4-II:4) returned a half-inhibitory concentration (IC50) of 146.63 ± 14.95 µg/mL (≈ 104 µM). In addition, the “MIC Staphylococcus aureus ATCC 33591” value in assay [1] (planktonic culture) came to 2 µg/mL (≈ 1.42 µM). Further, the “MIC C. albicans ATCC 10231” value against C. albicans ATCC 10231 (planktonic culture) is given as 8 µg/mL (≈ 5.67 µM). For the same compound, in the assay with C. glabrata ATCC 15126 (planktonic culture), the “MIC C. glabrata ATCC 15126” value was 8 µg/mL (≈ 5.67 µM). In addition, in assay [2] (24 h biofilm on polystyrene), the “MBEC Candida albicans ATCC 10231” value was 128 µg/mL. Further, in assay [3] (24 h biofilm on polystyrene), the “MBEC Enterococcus faecium ATCC 700221” value was found to be 8 µg/mL. The “MBEC Klebsiella pneumoniae ATCC 700603” value in assay [4] (24 h biofilm on polystyrene) was 256 µg/mL. In addition, the “MBEC Pseudomonas aeruginosa ATCC 9027” value in assay [5] (24 h biofilm on polystyrene) stood at 512 µg/mL.
Compound `CCCCCCCC(=O)N[C@@H](CCCC)C(=O)N[C@@H](CCCNC(=N)N)C(=O)N[C@@H](CCCNC(=N)N)C(=O)N[C@@H](CSSC[C@H](NC(=O)[C@H](CCCNC(=N)N)NC(=O)[C@H](CCCNC(=N)N)NC(=O)[C@H](CCCC)NC(=O)CCCCCCC)C(N)=O)C(N)=O` [Compound C6] (I: Octanoyl-[Nle]RRC-NH2 / II: Octanoyl-[Nle]RRC-NH2; disulfide I:4-II:4) returned an IC50 in the assay with HaCaT cells of 248.83 ± 18.81 µg/mL (≈ 185 µM). Besides, in assay [1] (ATCC 33591, 24 h), the “MIC Staphylococcus aureus ATCC 33591” value is 2 µg/mL (≈ 1.49 µM). In the assay with C. albicans ATCC 10231 (ATCC 10231, 24 h), the “MIC C. albicans ATCC 10231” value came out at 16 µg/mL (≈ 11.9 µM). Also, in the assay with C. glabrata ATCC 15126 (ATCC 15126, 24 h), the “MIC C. glabrata ATCC 15126” value was 16 µg/mL (≈ 11.9 µM). Moreover, the “MBEC Candida albicans ATCC 10231” value in assay [2] (ATCC 10231, 24 h) is recorded as 256 µg/mL. Besides, in assay [3] (ATCC 700221, 24 h), the “MBEC Enterococcus faecium ATCC 700221” value was 8 µg/mL. The “MBEC Klebsiella pneumoniae ATCC 700603” value in assay [4] (ATCC 700603, 24 h) worked out at 256 µg/mL. In assay [5] (ATCC 9027, 24 h), the “MBEC Pseudomonas aeruginosa ATCC 9027” value is 512 µg/mL.
In the assay with HaCaT cells, `CCCCCCCCCCCCCC(=O)N[C@@H](CCCNC(=N)N)C(=O)N[C@@H](CCCNC(=N)N)C(N)=O` [Compound A4, C14-RR-NH2] (Myristoyl-Arg-Arg-NH2) yielded an IC50 of 46.48 ± 3.65 µg/mL (≈ 86.1 µM). Besides, the “MIC Staphylococcus aureus ATCC 33591” value in assay [1] (ATCC 33591, 24 h) is 8 µg/mL (≈ 14.8 µM). Besides, in the assay with C. albicans ATCC 10231 (ATCC 10231, 24 h), the “MIC C. albicans ATCC 10231” value was 8 µg/mL (≈ 14.8 µM). Further, the “MIC C. glabrata ATCC 15126” value against C. glabrata ATCC 15126 (ATCC 15126, 24 h) was found to be 16 µg/mL (≈ 29.6 µM). The “MBEC Candida albicans ATCC 10231” value in assay [2] (ATCC 10231, 24 h) was found to be 64 µg/mL. Besides, in assay [3] (ATCC 700221, 24 h), the “MBEC Enterococcus faecium ATCC 700221” value was determined as 8 µg/mL. In addition, in assay [4] (ATCC 700603, 24 h), the “MBEC Klebsiella pneumoniae ATCC 700603” value is listed as 256 µg/mL. The “MBEC Pseudomonas aeruginosa ATCC 9027” value in assay [5] (ATCC 9027, 24 h) was 512 µg/mL.
